Measured values taken from PubChem BioAssay (NCI).
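The compound was tested at five concentrations on cells cultured in 96-well plates, with a 48-hour exposure period. Here, GI50 denotes the concentration required for 50% inhibition of growth. TGI: total growth inhibition.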

Experiments:
Assay in all cases: DTP human tumour cell line panel, 48 h
[1] = tested on: M14 melanoma
[2] = tested on: SF-268 CNS
[3] = tested on: HOP-62 NSCLC
[4] = tested on: SK-OV-3 ovarian
[5] = tested on: EKVX NSCLC
[6] = tested on: HOP-92 NSCLC
[7] = tested on: RXF 393 renal
[8] = tested on: NCI-H522 lung
[9] = tested on: HCT-116 colon
[10] = tested on: SF-295 CNS
[11] = tested on: OVCAR-8 ovarian
[12] = tested on: MALME-3M melanoma
[13] = tested on: UACC-257 melanoma
[14] = tested on: K-562 leukemia
[15] = tested on: KM12 colon
[16] = tested on: NCI-H226 lung
[17] = tested on: MDA-MB-435
[18] = tested on: IGROV1 ovarian
[19] = tested on: HT29 colon
[20] = tested on: 786-0 renal
[21] = tested on: HCT-15 colon
[22] = tested on: OVCAR-4 ovarian
[23] = tested on: U251 CNS
[24] = tested on: COLO 205 colon
[25] = tested on: NCI-H460 lung
[26] = tested on: SR leukemia
[27] = tested on: CAKI-1 renal
[28] = tested on: SK-MEL-2 melanoma
[29] = tested on: MCF7 breast
[30] = tested on: LOX IMVI melanoma
[31] = tested on: SF-539 CNS
[32] = tested on: MOLT-4 leukemia
[33] = tested on: TK-10 renal
[34] = tested on: RPMI-8226 leukemia
[35] = tested on: HCC-2998 colon
[36] = tested on: HS 578T breast
[37] = tested on: SW-620 colon
[38] = tested on: SNB-75 CNS
[39] = tested on: SNB-19 CNS
[40] = tested on: ACHN renal
[41] = tested on: PC-3 prostate
[42] = tested on: SK-MEL-28 melanoma
[43] = tested on: MDA-MB-231 breast
[44] = tested on: T-47D breast
[45] = tested on: NCI/ADR-RES ovarian
[46] = tested on: UO-31 renal
[47] = tested on: HL-60(TB) leukemia
[48] = tested on: SN12C renal
[49] = tested on: A498 renal
[50] = tested on: BT-549 breast
[51] = tested on: DU-145 prostate
[52] = tested on: NCI-H23 lung
[53] = tested on: CCRF-CEM leukemia
[54] = tested on: UACC-62 melanoma
[55] = tested on: OVCAR-5 ovarian
[56] = tested on: SK-MEL-5 melanoma
[57] = tested on: OVCAR-3 ovarian
[58] = tested on: A549 NSCLC

## NS(=O)(=O)N(c1cc(C(F)(F)F)cc(C(F)(F)F)c1)C1CCN(Cc2ccc(F)cc2)CC1
[1]
  GI50: 6.12 µM
  TGI: 18.4 µM
[2]
  GI50: 10.9 µM
  TGI: 22.9 µM
[3]
  GI50: 3.51 µM
  TGI: 14.1 µM
[4]
  GI50: 10.9 µM
  TGI: 23.3 µM
[5]
  GI50: 11.2 µM
  TGI: 23.8 µM
[6]
  GI50: 1.87 µM
  TGI: 15.2 µM
[7]
  GI50: 4.42 µM
  TGI: 16.6 µM
[8]
  GI50: 3.52 µM
  TGI: 13.4 µM
[9]
  GI50: 7.38 µM
  TGI: 19.8 µM
[10]
  GI50: 13.8 µM
  TGI: 27.7 µM
[11]
  GI50: 15.5 µM
  TGI: 33.9 µM
[12]
  GI50: 2.31 µM
  TGI: 9.5 µM
[13]
  GI50: 11.5 µM
  TGI: 25.3 µM
[14]
  GI50: 3.68 µM
  TGI: 19 µM
[15]
  GI50: 5.16 µM
  TGI: 17 µM
[16]
  GI50: 6.73 µM
  TGI: 21.7 µM
[17]
  GI50: 6.4 µM
  TGI: 19.7 µM
[18]
  GI50: 4.89 µM
  TGI: 18 µM
[19]
  GI50: 2.68 µM
  TGI: 7.51 µM
[20]
  GI50: 11.4 µM
  TGI: 23.5 µM
[21]
  GI50: 7.3 µM
  TGI: 21.8 µM
[22]
  GI50: 10.5 µM
  TGI: 22.2 µM
[23]
  GI50: 10.7 µM
  TGI: 24.5 µM
[24]
  GI50: 1.64 µM
  TGI: 3.08 µM
[25]
  GI50: 13.2 µM
  TGI: 31 µM
[26]
  GI50: 2.4 µM
  TGI: 9.02 µM
[27]
  GI50: 7.21 µM
  TGI: 20.4 µM
[28]
  GI50: 5.87 µM
  TGI: 18.1 µM
[29]
  GI50: 5.44 µM
  TGI: 18.5 µM
[30]
  GI50: 3.83 µM
  TGI: 13.7 µM
[31]
  GI50: 14.1 µM
  TGI: 27.6 µM
[32]
  GI50: 8.51 µM
  TGI: 29.6 µM
[33]
  GI50: 12.2 µM
  TGI: 25.4 µM
[34]
  GI50: 5.24 µM
  TGI: 22.3 µM
[35]
  GI50: 1.83 µM
  TGI: 3.56 µM
[36]
  GI50: 13.8 µM
  TGI: 33.6 µM
[37]
  GI50: 13.7 µM
  TGI: 30.7 µM
[38]
  GI50: 13.2 µM
  TGI: 25.9 µM
[39]
  GI50: 14.3 µM
  TGI: 27.8 µM
[40]
  GI50: 11.2 µM
  TGI: 23.3 µM
[41]
  GI50: 4.54 µM
  TGI: 17.6 µM
[42]
  GI50: 11.6 µM
  TGI: 23.8 µM
[43]
  GI50: 12.1 µM
  TGI: 26.2 µM
[44]
  GI50: 2.74 µM
  TGI: 13.9 µM
[45]
  GI50: 6.72 µM
  TGI: 19.4 µM
[46]
  GI50: 3.67 µM
  TGI: 16.4 µM
[47]
  GI50: 9.11 µM
  TGI: 28.6 µM
[48]
  GI50: 2.97 µM
  TGI: 11.6 µM
[49]
  GI50: 12.3 µM
  TGI: 26.1 µM
[50]
  GI50: 12.5 µM
  TGI: 24.9 µM
[51]
  GI50: 13.5 µM
  TGI: 26.3 µM
[52]
  GI50: 10.4 µM
  TGI: 22.1 µM
[53]
  GI50: 12 µM
  TGI: 36.3 µM
[54]
  GI50: 12.7 µM
  TGI: 25.6 µM
[55]
  GI50: 10.9 µM
  TGI: 23.2 µM
[56]
  GI50: 3.44 µM
  TGI: 12.7 µM
[57]
  GI50: 7.6 µM
  TGI: 20.4 µM
[58]
  GI50: 12.4 µM
  TGI: 29.1 µM

## O=S1CCN(Cc2ccc(-c3ccc4ncnc(Nc5ccc(OCc6ccccc6)c(Cl)c5)c4c3)o2)CC1
[1]
  GI50: 10 µM
  TGI: > 25 µM
[2]
  GI50: > 22.3 µM
  TGI: > 25 µM
[3]
  GI50: > 25 µM
  TGI: > 25 µM
[4]
  GI50: 0.0917 µM
  TGI: > 25 µM
[5]
  GI50: 0.112 µM
  TGI: > 19.9 µM
[6]
  GI50: 4.91 µM
  TGI: > 21.2 µM
[7]
  GI50: > 15.3 µM
  TGI: > 25 µM
[8]
  GI50: 3.68 µM
  TGI: > 25 µM
[9]
  GI50: 11.3 µM
  TGI: > 25 µM
[10]
  GI50: 9.76 µM
  TGI: > 25 µM
[11]
  GI50: 11.7 µM
  TGI: > 25 µM
[12]
  GI50: 10.1 µM
  TGI: > 25 µM
[13]
  GI50: 8.55 µM
  TGI: > 25 µM
[14]
  GI50: 10.1 µM
  TGI: > 25 µM
[15]
  GI50: 9.22 µM
  TGI: > 25 µM
[16]
  GI50: > 16.5 µM
  TGI: > 25 µM
[17]
  GI50: 8.95 µM
  TGI: > 25 µM
[18]
  GI50: 0.561 µM
  TGI: > 25 µM
[19]
  GI50: 6.9 µM
  TGI: > 18.8 µM
[20]
  GI50: 10.7 µM
  TGI: > 25 µM
[21]
  GI50: 7.78 µM
  TGI: > 25 µM
[22]
  GI50: 13.5 µM
  TGI: > 25 µM
[23]
  GI50: 14.9 µM
  TGI: > 25 µM
[24]
  GI50: 11.7 µM
  TGI: > 25 µM
[25]
  GI50: 10.2 µM
  TGI: > 25 µM
[26]
  GI50: 7.57 µM
  TGI: > 25 µM
[27]
  GI50: 0.635 µM
  TGI: > 25 µM
[28]
  GI50: 7.46 µM
  TGI: 16.7 µM
[29]
  GI50: > 15.2 µM
  TGI: > 25 µM
[30]
  GI50: 8.51 µM
  TGI: > 16.9 µM
[31]
  GI50: > 15.3 µM
  TGI: > 25 µM
[32]
  GI50: 9.06 µM
  TGI: > 25 µM
[33]
  GI50: 0.116 µM
  TGI: > 25 µM
[34]
  GI50: 12.4 µM
  TGI: > 25 µM
[35]
  GI50: 7.19 µM
  TGI: 23.4 µM
[36]
  GI50: > 21.6 µM
  TGI: > 25 µM
[37]
  GI50: 8.63 µM
  TGI: > 25 µM
[38]
  GI50: > 16.6 µM
  TGI: > 25 µM
[39]
  GI50: > 25 µM
  TGI: > 25 µM
[40]
  GI50: 0.656 µM
  TGI: > 25 µM
[41]
  GI50: 11.8 µM
  TGI: > 25 µM
[42]
  GI50: 14 µM
  TGI: > 25 µM
[43]
  GI50: 14.9 µM
  TGI: > 25 µM
[44]
  GI50: 5.72 µM
  TGI: > 25 µM
[45]
  GI50: 8.08 µM
  TGI: > 25 µM
[46]
  GI50: 6.32 µM
  TGI: > 25 µM
[47]
  GI50: 10.6 µM
  TGI: > 20.7 µM
[48]
  GI50: 14.8 µM
  TGI: > 25 µM
[49]
  GI50: 5.82 µM
  TGI: 24.3 µM
[50]
  GI50: 9.62 µM
  TGI: > 20.5 µM
[51]
  GI50: 7.52 µM
  TGI: > 25 µM
[52]
  GI50: 13.3 µM
  TGI: > 25 µM
[53]
  GI50: 9.07 µM
  TGI: > 25 µM
[54]
  GI50: 10.7 µM
  TGI: > 23.4 µM
[55]
  GI50: 12.1 µM
  TGI: > 25 µM
[56]
  GI50: 7.9 µM
  TGI: > 15.7 µM
[57]
  GI50: 8.08 µM
  TGI: > 25 µM
[58]
  GI50: 8.02 µM
  TGI: > 25 µM
